Patent US20120149718A1, “Amido Compounds” (priority 2010, published 2012)

Biological target: T1, human P2X7 (Homo sapiens, UniProt Q99572)
T1 construct: 1321N1 cells stably expressing the full length human P2X7 gene (1321N1-hP2X7)
T1 sequence (Q99572 1-595): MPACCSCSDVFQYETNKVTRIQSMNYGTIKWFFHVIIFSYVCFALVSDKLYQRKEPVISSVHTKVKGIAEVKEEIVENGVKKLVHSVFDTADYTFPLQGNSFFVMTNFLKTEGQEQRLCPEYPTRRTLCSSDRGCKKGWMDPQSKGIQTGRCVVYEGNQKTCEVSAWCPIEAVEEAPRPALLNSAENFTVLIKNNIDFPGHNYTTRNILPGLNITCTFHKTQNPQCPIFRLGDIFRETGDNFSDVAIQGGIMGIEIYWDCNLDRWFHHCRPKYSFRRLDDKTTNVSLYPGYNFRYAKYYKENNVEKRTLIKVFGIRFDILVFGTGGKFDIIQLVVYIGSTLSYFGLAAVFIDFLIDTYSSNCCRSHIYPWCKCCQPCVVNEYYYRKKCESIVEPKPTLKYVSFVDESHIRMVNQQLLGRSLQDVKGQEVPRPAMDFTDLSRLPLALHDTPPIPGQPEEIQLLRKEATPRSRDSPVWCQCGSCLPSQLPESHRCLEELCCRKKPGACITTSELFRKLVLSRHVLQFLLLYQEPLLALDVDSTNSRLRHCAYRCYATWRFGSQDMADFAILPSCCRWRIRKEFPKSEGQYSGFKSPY
Assay: Intracellular Calcium Flux (FLIPR) Assay
Format: cell-based
Settings: 1321N1 cells stably expressing full length human P2X7; agonist 100 μM BzATP; fluo-3 calcium flux; read-out: FLIPR pIC50 hP2X7-1321n1 (converted)
Description: Stock solutions of compounds were prepared from powders as a 10 mM DMSO stock solution. These solutions were stored at RT during the two week period of these experiments to prevent freeze-thaw of the DMSO stocks. The DMSO stocks were added to the appropriate assay buffer at a concentration of 10 μM, and then diluted serially to the final concentrations that were tested. No observable precipitate was formed at any time during this process. The aqueous solutions of compounds as well as ATP (Sigma A7699) and BzATP (Sigma B6396) were prepared fresh for each day of experiment.
1321N1 cells stably expressing the full length human P2X7 gene (1321N1-hP2X7) and HEK293 cells stably expressing the full length rat P2X7 gene (HEK293-rP2X7) were obtained from the Roche Cell Culture Facility. 1321N1-hP2X7 cells were grown in Dulbecco's Modified Eagle's Medium (DMEM) high glucose supplemented with 10% FBS and 250 μg/mL G418. HEK293-rP2X7 cells were grown in DMEM/F-12 supplemented with 10% FBS, 1 mM CaCl2, 2 mM MgCl2, 2 mM L-Glutamine and 500 μg/ml G418. Cells were split such that they never became >70% confluent.
On the day prior to the experiment, 1321N1-hP2X7 or HEK293-rP2X7 cells were released into suspension with calcium-free PBS+Versene and washed by centrifugation with calcium-free PBS to remove the Versene. Cells were resuspended in growth medium at a density of 2.5×10^5 cells/mL and seeded into black walled, clear bottom 96 well plates (50,000 cells/well) approximately 18 hr prior to intracellular calcium flux experiments.
On the day of the experiment, plates were washed with FLIPR buffer (calcium- and magnesium-free Hank's Balanced Salt Solution (HBSS) supplemented with 10 mM Hepes, 2.5 mM probenecid and 2 mM calcium chloride) using a BIO-TEK 96 channel plate washer and incubated with […] fluo-3 dye at 37° C. for one hr. The dye was then removed by plate washing and the cells were allowed to equilibrate for 20 min at room temperature with antagonist or vehicle (FLIPR buffer). Agonist (100 μM BzATP final concentration for hP2X7; 5 μM BzATP final concentration or rP2X7) was added online with the FLIPR and fluorescence measurements made at 1 sec intervals for 60 sec followed by 3 sec intervals for a further 4 min (5 min total). A final addition of 5 μM ionomycin was made and the maximal BzATP-evoked fluorescence normalized to the maximal ionomycin-evoked fluorescence.

With `COc1ccc2oc(NC(=O)C(Cc3ccc(F)cc3)c3ccc(S(C)(=O)=O)cc3)nc2c1` (stereo not drawn) [Compound I-44, 3-(4-Fluoro-phenyl)-2-(4-methanesulfonyl-phenyl)-N-(5-methoxy-benzooxazol-2-yl)-propionamide] as the compound, how does the IC50 read?
Its IC50 is 0.0759 µM.

How did the IC50 turn out when `CS(=O)(=O)c1ccc(C(Cc2ccc(F)cc2)C(=O)Nc2nc3cc(S(=O)(=O)N4CCCC4)ccc3o2)cc1` (stereo not drawn) [Compound I-47, 3-(4-Fluoro-phenyl)-2-(4-methanesulfonyl-phenyl)-N-[5-(pyrrolidine-1-sulfonyl)-benzooxazol-2-yl]-propionamide] was run?
The IC50 was 0.17 µM.

`COCCN(C)Cc1cnc(NC(=O)C(Cc2ccc(F)cc2)c2ccc(S(C)(=O)=O)cc2)cn1` (stereo not drawn) [Compound I-23, 3-(4-Fluoro-phenyl)-2-(4-methanesulfonyl-phenyl)-N-(5-{[(2-methoxy-ethyl)-methyl-amino]-methyl}-pyrazin-2-yl)-propionamide] was tested. Which IC50 did it give?
The IC50 was 0.646 µM.

How did the IC50 turn out when `CN(Cc1ccccc1)Cc1cnc(NC(=O)C(Cc2ccc(F)cc2)c2ccc(S(C)(=O)=O)cc2)cn1` (stereo not drawn) [Compound I-24, N-{5-[(Benzyl-methyl-amino)-methyl]-pyrazin-2-yl}-3-(4-fluoro-phenyl)-2-(4-methanesulfonyl-phenyl)-propionamide] was run?
Its IC50 is 1.05 µM.

Which IC50 does the source give for `COC(=O)c1ccc2nc(NC(=O)C(Cc3ccc(F)cc3)c3ccc(S(C)(=O)=O)cc3)oc2c1` (stereo not drawn) [Compound I-45, 2-[3-(4-Fluoro-phenyl)-2-(4-methanesulfonyl-phenyl)-propionylamino]-benzooxazole-6-carboxylic acid methyl ester] here?
The IC50 was 0.617 µM.

For `CS(=O)(=O)c1ccc(C(Cc2ccc(F)cc2)C(=O)Nc2nc3cc(Cl)ccc3o2)cc1` (stereo not drawn) [Compound I-39, N-(5-Chloro-benzooxazol-2-yl)-3-(4-fluoro-phenyl)-2-(4-methanesulfonyl-phenyl)-propionamide], which IC50 is on record?
The IC50 was 0.126 µM.

With `CS(=O)(=O)c1ccc(C(Cc2ccc(F)cc2)C(=O)Nc2nc3ccc(Cl)cc3o2)cc1` (stereo not drawn) [Compound I-38, N-(6-Chloro-benzooxazol-2-yl)-3-(4-fluoro-phenyl)-2-(4-methanesulfonyl-phenyl)-propionamide] as the compound, how does the IC50 read?
The IC50 was 0.316 µM.

With `CS(=O)(=O)c1ccc([C@@H](Cc2ccc(F)cc2)C(=O)Nc2cnc(CO)cn2)cc1` [Compound I-50a, (R)-3-(4-Fluoro-phenyl)-N-(5-hydroxymethyl-pyrazin-2-yl)-2-(4-methanesulfonyl-phenyl)-propionamide] as the compound, how does the IC50 read?
Its IC50 is 0.38 µM.

Which IC50 does the source give for `CS(=O)(=O)c1ccc(C(Cc2ccc(F)cc2)C(=O)Nc2cnc(Br)cn2)cc1` (stereo not drawn) [Compound I-13, N-(5-Bromo-pyrazin-2-yl)-3-(4-fluoro-phenyl)-2-(4-methanesulfonyl-phenyl)-propionamide] here?
Its IC50 is 0.813 µM.

How did the IC50 turn out when `CS(=O)(=O)c1ccc(CC(C(=O)Nc2nc3ccccc3o2)c2ccc(F)cc2)cc1` (stereo not drawn) [Compound I-53, N-Benzooxazol-2-yl-2-(4-fluoro-phenyl)-3-(4-methanesulfonyl-phenyl)-propionamide] was run?
Its IC50 is 0.407 µM.

Which IC50 does the source give for `CS(=O)(=O)c1ccc([C@H](Cc2ccc(F)cc2)C(=O)Nc2cnc(CO)cn2)cc1` [Compound I-50b, (S)-3-(4-Fluoro-phenyl)-N-(5-hydroxymethyl-pyrazin-2-yl)-2-(4-methanesulfonyl-phenyl)-propionamide] here?
The IC50 was over 10 µM.

For `O=C(Nc1nc2ccccc2o1)C(Cc1ccc(F)cc1)c1ccncc1` (stereo not drawn) [Compound I-54, N-Benzooxazol-2-yl-3-(4-fluoro-phenyl)-2-pyridin-4-yl-propionamide], which IC50 is on record?
The IC50 was 0.0309 µM.

Which IC50 does the source give for `CS(=O)(=O)c1ccc(C(Cc2ccc(F)cc2)C(=O)Nc2nc3ccncc3o2)cc1` (stereo not drawn) [Compound I-52, 3-(4-Fluoro-phenyl)-2-(4-methanesulfonyl-phenyl)-N-oxazolo[5,4-c]pyridin-2-yl-propionamide] here?
Its IC50 is 0.0661 µM.

With `CS(=O)(=O)c1ccc(C(Cc2ccncc2)C(=O)Nc2nc3ccccc3o2)cc1` (stereo not drawn) [Compound I-55, N-Benzooxazol-2-yl-2-(4-methanesulfonyl-phenyl)-3-pyridin-4-yl-propionamide] as the compound, how does the IC50 read?
Its IC50 is 0.661 µM.

With `CS(=O)(=O)c1ccc(C(Cc2ccc(F)cc2)C(=O)Nc2nc3cc(F)ccc3o2)cc1` (stereo not drawn) [Compound I-46, N-(5-Fluoro-benzooxazol-2-yl)-3-(4-fluoro-phenyl)-2-(4-methanesulfonyl-phenyl)-propionamide] as the compound, how does the IC50 read?
Its IC50 is 0.0447 µM.

How did the IC50 turn out when `Cc1cc(S(C)(=O)=O)ccc1C(Cc1ccc(F)cc1)C(=O)Nc1nc2ccccc2o1` (stereo not drawn) [Compound I-27, N-Benzooxazol-2-yl-3-(4-fluoro-phenyl)-2-(4-methanesulfonyl-2-methyl-phenyl)-propionamide] was run?
Its IC50 is 0.204 µM.

With `O=C(Nc1nc2ccccc2o1)C(Cc1ccc(F)cc1)c1ccc(F)cc1` (stereo not drawn) [Compound I-28, N-Benzooxazol-2-yl-2,3-bis-(4-fluoro-phenyl)-propionamide] as the compound, how does the IC50 read?
The IC50 was 0.437 µM.

For `Cc1ccc2nc(NC(=O)C(Cc3ccc(F)cc3)c3ccc(S(C)(=O)=O)cc3)oc2c1` (stereo not drawn) [Compound I-36, 3-(4-Fluoro-phenyl)-2-(4-methanesulfonyl-phenyl)-N-(6-methyl-benzooxazol-2-yl)-propionamide], which IC50 is on record?
The IC50 was 0.191 µM.

For `Cc1ccc2oc(NC(=O)C(Cc3ccc(F)cc3)c3ccc(S(C)(=O)=O)cc3)nc2c1` (stereo not drawn) [Compound I-37, 3-(4-Fluoro-phenyl)-2-(4-methanesulfonyl-phenyl)-N-(5-methyl-benzooxazol-2-yl)-propionamide], which IC50 is on record?
Its IC50 is 0.166 µM.

Which IC50 does the source give for `CC(=O)OCc1cnc(NC(=O)C(Cc2ccc(F)cc2)c2ccc(S(C)(=O)=O)cc2)cn1` (stereo not drawn) [Compound I-49, Acetic acid 5-[3-(4-fluoro-phenyl)-2-(4-methanesulfonyl-phenyl)-propionylamino]-pyrazin-2-ylmethyl ester] here?
The IC50 was 0.871 µM.

`Cc1cccc2nc(NC(=O)C(Cc3ccc(F)cc3)c3ccc(S(C)(=O)=O)cc3)oc12` (stereo not drawn) [Compound I-42, 3-(4-Fluoro-phenyl)-2-(4-methanesulfonyl-phenyl)-N-(7-methyl-benzooxazol-2-yl)-propionamide] was tested. Which IC50 did it give?
The IC50 was 0.0288 µM.

For `CS(=O)(=O)c1ccc(C(Cc2ccc(F)cc2)C(=O)Nc2ncc(-c3ccccc3)o2)cc1` (stereo not drawn) [Compound I-48, 3-(4-Fluoro-phenyl)-2-(4-methanesulfonyl-phenyl)-N-(5-phenyl-oxazol-2-yl)-propionamide], which IC50 is on record?
Its IC50 is 0.295 µM.

How did the IC50 turn out when `Cc1cc(C)c2oc(NC(=O)C(Cc3ccc(F)cc3)c3ccc(S(C)(=O)=O)cc3)nc2c1` (stereo not drawn) [Compound I-43, N-(5,7-Dimethyl-benzooxazol-2-yl)-3-(4-fluoro-phenyl)-2-(4-methanesulfonyl-phenyl)-propionamide] was run?
Its IC50 is 0.102 µM.

With `CS(=O)(=O)c1ccc(C(Cc2ccc(F)cc2)C(=O)Nc2nc3cc(C(F)(F)F)ccc3o2)cc1` (stereo not drawn) [Compound I-41, 3-(4-Fluoro-phenyl)-2-(4-methanesulfonyl-phenyl)-N-(5-trifluoromethyl-benzooxazol-2-yl)-propionamide] as the compound, how does the IC50 read?
Its IC50 is 0.115 µM.

`Cc1ccccc1C[C@H](C(=O)Nc1nc2ccccc2o1)c1ccc(S(C)(=O)=O)cc1` [Compound I-10, (S)—N-Benzooxazol-2-yl-2-(4-methanesulfonyl-phenyl)-3-o-tolyl-propionamide] was tested. Which IC50 did it give?
The IC50 was 0.427 µM.

How did the IC50 turn out when `CC(C)(O)c1cnc(NC(=O)C(Cc2ccc(F)cc2)c2ccc(S(C)(=O)=O)cc2)cn1` (stereo not drawn) [Compound I-17, 3-(4-Fluoro-phenyl)-N-[5-(1-hydroxy-1-methyl-ethyl)-pyrazin-2-yl]-2-(4-methanesulfonyl-phenyl)-propionamide] was run?
The IC50 was 1.07 µM.

With `Cc1ccccc1C[C@@H](C(=O)Nc1nc2ccccc2o1)c1ccc(S(C)(=O)=O)cc1` [Compound I-11, (R)—N-Benzooxazol-2-yl-2-(4-methanesulfonyl-phenyl)-3-o-tolyl-propionamide] as the compound, how does the IC50 read?
The IC50 was 0.0813 µM.
